Data: patent publication EP2550959A1 (priority 2011, dated 2013)
Read-outs that look alike come from different tables or passages of the source.

Assays:
[1] = target: T1, 5-HT2B Rezeptoren von Schweinelungenarterien (Sus scrofa, UniProt F1SMV8); assay: Functional 5-HT2B receptor assay: 5-HT-induced relaxation of PGF2α-precontracted pig pulmonary arteries; type: biochemical, Schwein; details: conditions as in Beispiel 1
Description: (§1) Dabei bedeutet der pA2 -Wert den negativ dekadischen Logarithmus der Konzentration eines Antagonisten, die es erforderlich macht, die Agonisten-Konzentration zu verdoppeln, um den Ausgangseffekt des Agonisten ohne Antagonisten wiederherzustellen.
Die vaskuläre Reaktion in Präparationen der Pulmonalarterien des Schweins, die mittels PGF2α vorkontrahiert waren, wurden als Assay für die spezifische Interaktion mit 5-HT2B-Rezeptoren verwendet (siehe Fig. 1A).

[2] = target: 5-HT2A Rezeptoren von Schweineherzkranzarterien (Sus scrofa, UniProt P50129); assay: Functional 5-HT2A receptor assay: 5-HT-induced contraction of pig coronary arteries; type: biochemical, Schwein
Description: as §1

[3] = Stability of lisuride dissolved in water (HPLC); details: room temperature, HPLC (Fig. 3A)
[4] = Antioxidative effect / uptake of oxygen radicals; type: physicochemical; details: per single molecule
Description: Die massenspektroskopisch in der Mehrheit nachweisbaren Reaktionsprodukte enthalten 2 Sauerstoffatome; es lassen sich aber auch Verbindungen mit 3, 4 und 5 Sauerstoff-Atomen nachweisen.
Ein typisches Charakteristikum von Massenspektra ist, dass Gipfel von [M+H]++18, d. h. Zusatz von Wasser, oder [M+H]++16, d.h. Zusatz eines Sauerstoffatoms, gefunden werden, wie auch Kombinationen von Wasser und Sauerstoffatomen. Wegen der niedrigen in den Entnahmeproben enthaltenen Substanzmengen und der Kurzlebigkeit der Reaktionsprodukte war deren Isolierung zur Strukturaufklärung nicht möglich. Das Lisuridmolekül weist mehrere Positionen auf, an denen Wasser und/oder ein Sauerstoffatom gebunden werden können (Fig. 4).

[5] = system: Menschliche glatte Muskelzellen mesenterialen Ursprungs; assay: 5-HT-stimulated proliferation of human smooth muscle cells (3H-thymidine uptake); type: cell-based; details: 10 µmol/l test substance, growth stimulated with 10-8 mol/l 5-HT; Fig. 2
Description: Menschliche glatte Muskelzellen mesenterialen Ursprungs (Promo Cell) wurden entsprechend den Empfehlungen des Herstellers bis zur Bildung geschlossener Monolayers in 6 Platten mit PromoCell-Kulturmedium vermehrt und dann im gleichen Medium auf 24-Vertiefungsträgern für eine Zellzahl von 5x104 Zellen/Ansatz ausgesät. […] Zur Bestimmung des Zellwachstums wurde dann 3H-Thymidin (Amersham) zu den Zellkulturen hinzugegeben und diese für 24 Stunden inkubiert. Nach der Adhäsion der Zellen wurde das Kulturmedium durch ein Standardmedium mit 0.2% fetalem Kalbsserum zum Wachstumsstopp ersetzt und erneut 48 Stunden lang inkubiert.
Um antiproliferative Wirkungen der beschriebenen Substanzen zu testen, wurden die Zellkulturen dann zunächst mit einer Konzentration von 10 µmol/l der Prüfsubstanzen präinkubiert. […] Zur Messung des Wachstums der Zellen wurde dann 3H-Thymidin (Amersham) den Kulturen zugefügt und diese für 24 Stunden inkubiert. Danach erfolgten 2 Inkubationen in eisgekühlter Kochsalzlösung mit einem Phosphat-Puffer und danach 30 min Inkubation in eisgekühlter 10%iger Trichlor-Essigsäure bei 4°C. Die Zellen wurden dann in 0.1 molarer NaOH-Lösung inkubiert (0.5 ml/Inkubationsgefäss). Nach Neutralisierung mit Essigsäure wurde die 3H -Thymidin-Aufnahme mit Flüssig-Szintillation gemessen (als Dreifach-Bestimmung).

[6] = system: monocrotalin-induzierten Lungenhochdruck; assay: Monocrotaline-induced pulmonary hypertension in the rat; type: in vivo, Sprague-Dawley Ratten; details: days 15-28, mean ± SEM (N=6)
Description: Monocrotalin (MCT) ist ein Toxin aus Pflanzen der Spezies Crotalaria, welches nach einer einzigen Injektion in Ratten die Endothelzellen der pulmonalen Arterien schädigt mit folgender Hypertrophie der glatten Gefässmuskulatur und persistierendem schwerem pulmonalem Hochdruck. Die MCTinduzierte pulmonale Hypertension der Ratte ist ein gut etabliertes und validiertes Modell der humanen pulmonalen Hypertension und alle heute zugelassenen Therapeutika haben eine Wirkung in diesem Modell gezeigt, zumindest wenn sie vor dem toxisch bedingten Gewebeumbau angewendet wurden.
MCT (60mg/kg) wurde bei männlichen Sprague-Dawley Ratten als Einzelinjektion subkutan verabreicht und ein gleiches Volumen isotonischer Kochsalzlösung bei den Kontrolltieren injiziert. […] Dabei wurde die genannte Dosis der jeweiligen Testsubstanz morgens und abends in einem Volumen von je 2.0 ml an Gruppen von jeweils 6 Tieren gegeben, die an Tag 1 des Experiments mit MCT behandelt worden waren. Die gleiche Menge Wasser wurde den Kontrolltieren zugeführt.
Am Tag 28 des Experiments, zwei Stunden nach letztmaliger Substanzgabe, wurden die Tiere narkotisiert unter Verwendung von Pentobarbital. Eine Tracheotomie wurde durchgeführt und die Tiere unter Isofluran-Anästhesie beatmet. Der mittlere arterielle Systemdruck und der systolische Druck im rechten Herzventrikel wurden gemessen. Nach den Druckmessungen wurden die Tiere mit physiologischer Kochsalzlösung perfundiert und die rechte Lunge wurde zur Bestimmung des Kollagengehalts entfernt.
Die sc-Injektion von MCT, wie oben beschrieben, führt zu einer schweren Schädigung des pulmonalen Gefässendothels sowie überschießender Produktion von Bindegewebe und Entwicklung einer pulmonalen Hypertonie. Anhäufung von Kollagen, gemessen als Hydroxyprolin-Gehalt des Lungengewebes, und Anstieg des rechtsventrikulären systolischen Drucks reflektieren die beschriebenen strukturellen und funktionalen Veränderungen. Die möglichen therapeutischen und präventiven Effekte von Lisurid bzw. Tergurid wurden in dem vorgestellten Modell der pulmonalen Hypertension gemessen. […]

5-HT-induzierte Effekte = details: 2007], cited from earlier work
[7] = target: T1, 5-HT2B Rezeptoren von Schweinelungenarterien; details: footnote d: from Glusa and Pertz, Brit. J. Pharmacol. 130, 692-698, 2000; cited from earlier work

5-HT2A Rezeptoren von Schweineherzkranzarterien, sequence (P50129 whole entry): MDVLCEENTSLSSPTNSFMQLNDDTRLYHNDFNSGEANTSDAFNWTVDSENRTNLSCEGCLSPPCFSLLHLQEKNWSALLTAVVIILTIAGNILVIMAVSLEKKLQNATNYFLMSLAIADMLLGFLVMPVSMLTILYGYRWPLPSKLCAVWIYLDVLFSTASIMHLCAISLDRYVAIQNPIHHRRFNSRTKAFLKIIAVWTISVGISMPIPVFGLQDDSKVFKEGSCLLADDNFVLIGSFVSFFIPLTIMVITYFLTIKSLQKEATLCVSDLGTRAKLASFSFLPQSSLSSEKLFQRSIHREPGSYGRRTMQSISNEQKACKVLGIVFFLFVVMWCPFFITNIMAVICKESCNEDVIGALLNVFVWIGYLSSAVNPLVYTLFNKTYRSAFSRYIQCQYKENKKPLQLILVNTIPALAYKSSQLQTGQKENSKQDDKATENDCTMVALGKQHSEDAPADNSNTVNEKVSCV
T1 sequence (F1SMV8 1-481): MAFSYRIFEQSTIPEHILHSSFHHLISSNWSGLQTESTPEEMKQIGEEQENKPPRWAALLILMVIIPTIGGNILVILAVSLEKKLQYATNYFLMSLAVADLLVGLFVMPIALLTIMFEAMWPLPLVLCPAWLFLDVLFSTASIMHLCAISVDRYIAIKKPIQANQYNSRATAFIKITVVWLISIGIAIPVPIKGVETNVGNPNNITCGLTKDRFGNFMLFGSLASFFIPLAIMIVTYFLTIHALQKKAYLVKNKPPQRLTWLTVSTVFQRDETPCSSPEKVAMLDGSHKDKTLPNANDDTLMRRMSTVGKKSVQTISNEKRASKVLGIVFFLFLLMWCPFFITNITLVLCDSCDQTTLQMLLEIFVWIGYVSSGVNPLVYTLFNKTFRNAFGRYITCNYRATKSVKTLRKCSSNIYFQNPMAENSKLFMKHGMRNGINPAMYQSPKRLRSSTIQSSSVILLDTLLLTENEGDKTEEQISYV

## CCN(CC)C(=O)NC1C=C2c3cccc4[nH]cc(c34)CC2NC1 (stereo not drawn) [6-Norlisurid]
[1]
  5-HT2B pA2: 8.39 ± 0.12
[2]
  Kb: 1.45 nM

## CCN(CC)C(=O)NC1CNC2Cc3c[nH]c4cccc(c34)C2C1 (stereo not drawn) [6-Nortergurid]
[1]
  5-HT2B pA2: 7.11 ± 0.08
[2]
  Kb: 14.1 nM

## CCN(CC)C(=O)N[C@H]1C=C2c3cccc4[nH]cc(c34)C[C@H]2N(C)C1 [Lisurid, 3-(9,10-didehydro-6-methylergoline-8alpha-yl)-1,1-diethylurea]
[3]
  Abbau von gelöstem Lisurid in Wasser: schnell zu Produkten abgebaut
[4]
  freie Sauerstoffradikale, die ein Molekül aufnehmen kann: ≤ 6

## Oxtergurid
[1]
  5-HT2B pA2: 6.42 ± 0.20
[2]; pig coronary arteries, conditions as in Beispiel 1
  5-HT2A pA2: 6.99 ± 0.04

## CCN(CC)C(=O)N[C@H]1C[C@@H]2c3cccc4[nH]cc(c34)C[C@H]2N(C)C1 [Tergurid, trans-Dihydrolisurid]
[5]
  Zellproliferation (3H -Thymidin-Aufnahme): Reduktion der Zellproliferation
[2]
  IC50: 0.372 nM
[4]
  freie Sauerstoffradikale, die ein Molekül aufnehmen kann: ≤ 4
[6]; Monocrotaline (60 mg/kg s.c.) + 2.5 mg/kg bid by gavage
  RVPsys: 39 ± 3 mmHG
[6]; Monocrotaline + 2.5 mg/kg bid, systemic arterial pressure
  SAP: 111 ± 7 mmHG
[6]; lung, Monocrotaline + 2.5 mg/kg bid
  Hydroxyproline: 2.7 ± 1.2 ug/g protein
5-HT-induzierte Effekte; rat [Hauso O et al.
  5-HT-induzierter Gewichtsanstieg von Herz und Leber: verhinderte
  Verhaltensabnormalitäten und fibrotische Hautveränderungen an den Injektionsorten von 5-HT: unterdrückte
5-HT-induzierte Effekte; rat, daily 5-HT over 4 months [Hauso O et al.
  pulmonale Klappeninsuffizienz: nicht nachweisbar

## Cc1cc(NC(=O)Nc2ccc3c(ccn3C)c2)sn1 [SB204741]
[7]
  5-HT2B pA2: 6.59 ± 0.20^d

## CCN(CC)C(=O)NC1CC2c3cccc4[nH]cc(c34)CC2N(C)C1 (stereo not drawn) [8β-Tergurid]
[1]
  5-HT2B pA2: 8.39 ± 0.09
[2]
  Kb: 5.13 nM

## CCNC(=O)NC1C=C2c3cccc4[nH]cc(c34)CC2N(C)C1 (stereo not drawn) [N"-Monodesethyllisurid]
[1]
  5-HT2B pA2: 8.08 ± 0.05
[2]
  Kb: 5.13 nM

## CCNC(=O)NC1CC2c3cccc4[nH]cc(c34)CC2N(C)C1 (stereo not drawn) [N"-Monodesethyltergurid]
[1]
  5-HT2B pA2: 7.30 ± 0.02
[2]
  Kb: 15.1 nM
